# Results as given in US7687456B2, “Compounds for enzyme inhibition” (Proteolix, Inc., priority 2005, dated 2010).
# System: proteasome CT-L activity
# Assay: Proteasome CT-L inhibition in blood of mice one hour after oral dosing
# Assay type: in vivo
# Conditions: 20 mg/kg PO, one hour post-dosing, blood lysate, substrate LLVY-AMC, relative to vehicle-dosed cohort
# Procedure: Compounds were formulated in 10% PS80/NaCitrate (pH 3) vehicle and administered to mice orally (PO) (3 animals/cohort). One hour post-dosing, the animals were sacrificed and the following tissues harvested: blood, brain, adrenal gland, heart and liver. Whole blood (˜200 μl) was washed twice with PBS and lysed by hypotonic shock (300 μl 50 mM Tris pH 8, 5 mM EDTA). Blood lysates were stored at −80° C. until assayed. Blood lysates were clarified by centrifugation in a microcentrifuge. The CT-L specific activity of proteasome in each lysate was evaluated by determining: a) the protein concentration by modified Bradford assay with bovine gamma globulin as a standard; and b) the rate of cleavage of the fluorogenic proteasome substrate LLVY-AMC. The percent proteasome activity for the analog-treated animals was calculated by dividing of the average specific activity for each analog-dosed cohort by the average specific activity of the vehicle-dosed cohort. Percent proteasome inhibition was calculated by subtracting percent proteasome activity from 100. Equivalents
row,SMILES,proteasome CT-L inhibition
1,COC[C@H](NC(=O)c1cc(C)on1)C(=O)N[C@H](C(=O)N[C@@H](CC(C)C)C(=O)[C@@]1(C)CO1)C(C)C [Compound 029],> 70%
2,COC[C@H](NC(=O)c1cc(C)on1)C(=O)N[C@@H](Cc1cscn1)C(=O)N[C@@H](CC(C)C)C(=O)[C@@]1(C)CO1 [Compound 039],> 75%
3,COC[C@H](NC(=O)c1cc(C)on1)C(=O)N[C@@H](C)C(=O)N[C@@H](CC(C)C)C(=O)[C@@]1(C)CO1 [Compound 045],> 80%
4,Cc1cc(C(=O)N[C@@H](Cc2ccccn2)C(=O)N[C@@H](Cc2ccccc2)C(=O)N[C@@H](CC(C)C)C(=O)[C@@]2(C)CO2)no1 [Compound 055],> 80%
5,COC[C@H](NC(=O)c1cc(C)on1)C(=O)N[C@@H](COC)C(=O)N[C@@H](CC(C)C)C(=O)[C@@]1(C)CO1 [Compound 075],> 80%
6,COC[C@H](NC(=O)c1ccon1)C(=O)N[C@@H](COC)C(=O)N[C@@H](CC(C)C)C(=O)[C@@]1(C)CO1 [Compound 083],> 80%
7,COC[C@H](NC(=O)c1cc(C)no1)C(=O)N[C@@H](COC)C(=O)N[C@@H](CC(C)C)C(=O)[C@@]1(C)CO1 [Compound 085],> 50%
8,COC[C@H](NC(=O)c1cc(C)on1)C(=O)N[C@@H](COC)C(=O)N[C@@H](Cc1ccccc1)C(=O)[C@@]1(C)CO1 [Compound 088],> 80%
9,COC[C@H](NC(=O)c1cc(C)on1)C(=O)N[C@@H](COC)C(=O)N[C@@H](Cc1ccc(F)cc1)C(=O)[C@@]1(C)CO1 [Compound 091],> 80%

# Same assay, conditions: 40 mg/kg PO, one hour post-dosing, blood lysate, substrate LLVY-AMC, relative to vehicle-dosed cohort
row,SMILES,proteasome CT-L inhibition
1,COC[C@H](NC(=O)c1cc(C)on1)C(=O)N[C@@H](Cc1ccccc1)C(=O)N[C@@H](CC(C)C)C(=O)[C@@]1(C)CO1 [Compound 010],> 90%
2,CC(C)C[C@H](NC(=O)c1cc(CN2CCOCC2)on1)C(=O)N[C@@H](Cc1ccccc1)C(=O)N[C@@H](CC(C)C)C(=O)[C@@]1(C)CO1 [Compound 023],> 80%
3,CC(C)C[C@H](NC(=O)c1cc(CN2CCOCC2)on1)C(=O)N[C@@H](Cc1cscn1)C(=O)N[C@@H](CC(C)C)C(=O)[C@@]1(C)CO1 [Compound 035],> 90%
4,CC(C)C[C@H](NC(=O)[C@H](Cc1ccccc1)NC(=O)[C@@H](NC(=O)c1cc(CN2CCOCC2)on1)C(C)C)C(=O)[C@@]1(C)CO1 [Compound 061],> 80%
5,COCC[C@H](NC(=O)c1cc(C(C)C)on1)C(=O)N[C@@H](Cc1ccccc1)C(=O)N[C@@H](CC(C)C)C(=O)[C@@]1(C)CO1 [Compound 068],> 70%
